According to publication PMC12656329, “Specific Hepatorenal Toxicity and Cross-Species Susceptibility of Eight Representative Pesticides” (Toxics, 2025):
“Also recorded” adds a separate entry of the source. Like-named read-outs stand apart in the source and are kept apart here.

Legend:
CCC-HEL-1 hepatocytes [1] = test: CCK-8 cytotoxicity assay, CCC-HEL-1; type: cell-based; settings: Homo sapiens, Hepatocyte; CCK-8, 24 h exposure
Experimental: (§1) Human embryonic kidney 293T (HEK293T) cells and rat renal NRK cells were maintained in high-glucose DMEM supplemented with 10% fetal bovine serum (FBS) and 1% penicillin–streptomycin at 37 °C under 5% CO2 until reaching 70–80%. Human liver CCC-HEL-1 cells were cultured under identical conditions but with 20% FBS, while rat normal hepatocytes were grown in high-glucose MEM containing 20% FBS and 1% penicillin–streptomycin. Stock solutions (500 g/L) of eight pesticide standards were prepared in dimethyl sulfoxide (DMSO) and stored at −20 °C. Working concentrations were freshly diluted in serum-containing culture medium prior to each experiment.
(§2) The cytotoxicity of eight pesticides on four mammalian cell lines was assessed using the Cell Counting Kit-8 (CCK-8) assay. Initially, stock solutions of each pesticide were prepared by dissolving the compound in dimethyl sulfoxide (DMSO) to a final concentration of 500 g/L. For the assay, cells were seeded into 96-well plates at a density of 2 × 10^4 cells per well in 100 µL of medium and incubated for 24 h at 37 °C under a 5% CO2 atmosphere to allow for attachment. Subsequently, the culture medium was replaced with fresh medium containing the pesticides at a series of final concentrations (0, 10, 100, 200, 400, 800, 1000, and 2500 mg/L). Pesticide working concentrations were prepared through serial dilution of the 500 g/L DMSO stock solution, resulting in variable final DMSO concentrations across treatment groups (ranging from 0.002% to 0.5% v/v). A media-only blank (no cells) was included for background absorbance correction, and a solvent control (0.1% DMSO, no pesticide) was used to account for any vehicle effects. All conditions were performed in five replicates. […] At DMSO concentrations ranging from 0.1% to 0.2%, the viability of all four cell lines remained stable above 80%. At a 1% DMSO concentration, the viability of all four cell types was around 50% or higher (Supplementary Figure S5). Following 24 h of exposure, 10 µL of CCK-8 reagent was added to each well. Absorbance Measurement: After an additional 1 h of incubation in the dark, the optical density (OD) at 450 nm was recorded using a microplate reader. Cell viability was calculated by comparing the OD values of treated groups with those of the blank control. Although some test concentrations exceeded the water solubility of the pesticides, the combination of DMSO and serum in the culture medium maintained a uniform exposure system. No precipitation was observed during the experiment, ensuring that the measured effects are attributed to the bioavailable fraction of the compound. […]
(§3) 1. Pesticide Exposure: After removing the medium, fresh medium containing gradient concentrations (0–2500 mg/L) of each pesticide was added (five replicates per concentration).
(§4) Following 24 h of exposure, 10 µL of CCK-8 reagent was added to each well.
(§5) 2. Absorbance Measurement: After 1 h of dark incubation, the OD at 450 nm was measured using a microplate reader.
(§6) 3. Cell Viability Calculation: Viability was determined by comparing the OD values of treated groups to the blank control. […]

IAR hepatocytes = test: CCK-8 cytotoxicity assay, IAR; type: cell-based; settings: Rattus norvegicus, Hepatocyte; CCK-8, 24 h exposure
Experimental: as §1, §2, §3, §4, §5, §6

293T renal cells [2] = test: CCK-8 cytotoxicity assay, 293T; type: cell-based, human; settings: CCK-8, 24 h exposure; for IC50: Homo sapiens, HEK-293T, 24 h
Experimental: as §1, §2, §3, §4, §5, §6

NRK renal cells = test: CCK-8 cytotoxicity assay, NRK; type: cell-based; settings: Rattus norvegicus; CCK-8, 24 h exposure
Experimental: as §1, §2, §3, §4, §5, §6

[3] = test system: four mammalian cell lines (CCC-HEL-1, 293T, IAR, NRK); test: CCK-8 cytotoxicity, statements across the four cell lines; type: cell-based, human and rat; settings: CCK-8 / heatmap of OD values
Experimental: The cytotoxicity of eight pesticides on four mammalian cell lines was assessed using the Cell Counting Kit-8 (CCK-8) assay. Initially, stock solutions of each pesticide were prepared by dissolving the compound in dimethyl sulfoxide (DMSO) to a final concentration of 500 g/L. For the assay, cells were seeded into 96-well plates at a density of 2 × 10^4 cells per well in 100 µL of medium and incubated for 24 h at 37 °C under a 5% CO2 atmosphere to allow for attachment. Subsequently, the culture medium was replaced with fresh medium containing the pesticides at a series of final concentrations (0, 10, 100, 200, 400, 800, 1000, and 2500 mg/L). Pesticide working concentrations were prepared through serial dilution of the 500 g/L DMSO stock solution, resulting in variable final DMSO concentrations across treatment groups (ranging from 0.002% to 0.5% v/v). A media-only blank (no cells) was included for background absorbance correction, and a solvent control (0.1% DMSO, no pesticide) was used to account for any vehicle effects. All conditions were performed in five replicates. […] At DMSO concentrations ranging from 0.1% to 0.2%, the viability of all four cell lines remained stable above 80%. At a 1% DMSO concentration, the viability of all four cell types was around 50% or higher (Supplementary Figure S5). Following 24 h of exposure, 10 µL of CCK-8 reagent was added to each well. Absorbance Measurement: After an additional 1 h of incubation in the dark, the optical density (OD) at 450 nm was recorded using a microplate reader. Cell viability was calculated by comparing the OD values of treated groups with those of the blank control. Although some test concentrations exceeded the water solubility of the pesticides, the combination of DMSO and serum in the culture medium maintained a uniform exposure system. No precipitation was observed during the experiment, ensuring that the measured effects are attributed to the bioavailable fraction of the compound.

CCC-HEL-1 hepatocytes [4] = settings: CCC-HEL-1 cells, 24 h exposure at median lethal concentration, vs control
Rat = settings: cited from earlier work
Colinus virginianus = settings: in vivo; cited from earlier work
[5] = ref PPDB: Pesticide Properties DataBase, cited from earlier work
293T renal cells [6] = test: ELISA of toxicity biomarkers (LDH, KIM-1) in culture supernatant, 293T; type: cell-based, human; settings: 293T cells, 24 h exposure at median lethal concentration, vs control
Experimental: The levels of hepatotoxicity biomarkers (ALT, AST, ALP) and nephrotoxicity biomarkers (KIM-1, LDH) in cell culture supernatant were quantified using commercially available ELISA kits (Cloud-Clone Corp., Wuhan, China). 100 μL of the supernatant was added to the pre-coated wells and incubated according to the manufacturer’s protocol (five replicates). After washing, the appropriate detection antibody and substrate were added, and the absorbance was measured at 450 nm using microplate reader. The concentrations of the biomarkers were determined based on standard curves.

[7] = cited from earlier work
MRP2 in 293T renal cells = test: MRP2 immunofluorescence staining, 293T; type: cell-based, human; settings: 293T cells, 24 h at IC50, immunofluorescence, vs untreated controls
Experimental: Cells were seeded at a density of 1 × 10^5 cells per well in immunofluorescence-specific glass-bottom dishes and allowed to adhere for 24 h. […] Following treatment, cells were fixed with 4% paraformaldehyde for 15 min at room temperature and permeabilized with 0.1% Triton X-100 for 10 min. Non-specific binding was blocked with 5% bovine serum albumin (BSA) for 1 h at room temperature. Cells were then incubated with primary antibody against MRP2 (1:300 dilution) overnight at 4 °C. After three washes with PBS, cells were treated with secondary antibody (rabbit anti-IgG, 1:600 dilution) for 1 h at room temperature and washed three times with PBS. Anti-MRP2 antibody (Abcam, ab172630) and Alexa Fluor® 488-conjugated anti-rabbit IgG secondary antibody (Cell Signaling Technology, Danvers, MA, USA, 4412) were used for immunofluorescence staining. Nuclei were counterstained with DAPI Staining Solution (C1005, 10 mL) (Beyotime Biotechnology, Shanghai, China). Fluorescent images were captured using a 10× inverted fluorescence microscope. Quantitative analysis of fluorescence intensity was performed using ImageJ software 2.1.0 (National Institutes of Health, Bethesda, MD, USA).

[8] = cell lines as stated in the sentence
[9] = Rat, ref PPDB: Pesticide Properties DataBase

With `CC(C)(C)C(O)(CCc1ccc(Cl)cc1)Cn1cncn1` (stereo not shown) [Tebuconazole, tebuconazole] the IC50 (CCC-HEL-1 hepatocytes [1]) was 135 µg/mL, the IC50 (IAR hepatocytes) was 188 µg/mL and the IC50 (293T renal cells [2]) was 41.5 µg/mL. For the same molecule, the IC50 (NRK renal cells) was 171 µg/mL, the “cytotoxicity (in words)” value [3, 8] was “relatively lower cytotoxicity at specific concentrations” and the ALP level (CCC-HEL-1 hepatocytes [4]) was “concurrent elevations of both ALT and ALP”. For the same molecule, the LDH level (CCC-HEL-1 hepatocytes [4]) was “LDH elevation”, the ALP level (CCC-HEL-1 hepatocytes [4]; listed as tebuconazole) was “substantial increases” and the “Mammals - Acute oral LD50” value (Rat; rat, in vivo, po) was 1700. For the same molecule, the “Birds - Acute LD50” value (Colinus virginianus) was 1988 and the “ADI - Acceptable Daily Intake” value ([5]; Dog SF=100) was 0.03 mg kg⁻¹ bw day⁻¹.
Molecule `CC1COC(Cn2cncn2)(c2ccc(Oc3ccc(Cl)cc3)cc2Cl)O1` (stereo not shown) [Difenoconazole, difenoconazole] has an IC50 (CCC-HEL-1 hepatocytes [1]) of 374 µg/mL, an IC50 (IAR hepatocytes) of 132 µg/mL and an IC50 (293T renal cells [2]) of 209 µg/mL. The IC50 (NRK renal cells) was 498 µg/mL, the KIM-1 expression (293T renal cells [6]) was “significantly decreased” and the “cytotoxicity (in words)” value [3, 8] was “strong cytotoxic effects”. The ALT level (CCC-HEL-1 hepatocytes [4]) was “reduced ALT activity”, the AST level (CCC-HEL-1 hepatocytes [4]) was “increased levels” and the AST level (CCC-HEL-1 hepatocytes [4]; listed as difenoconazole) was “elevated AST levels”. The “ADI - Acceptable Daily Intake” value ([5]; Rat SF=100) was 0.01 mg kg⁻¹ bw day⁻¹.
In the case of `CC(C)(C)C(=O)C(Oc1ccc(Cl)cc1)n1cncn1` (stereo not shown) [Triadimefon, triadimefon], the IC50 (CCC-HEL-1 hepatocytes [1]) was 219 µg/mL, the IC50 (IAR hepatocytes) was 878 µg/mL and the IC50 (293T renal cells [2]) was 107 µg/mL. For the same molecule, the IC50 (NRK renal cells) was 977 µg/mL, the “cytotoxicity (in words)” value [3, 8] was “strong cytotoxic effects” and the “ADI - Acceptable Daily Intake” value ([5]; basis species not given) was 0.03 mg kg⁻¹ bw day⁻¹.
Work on `Cc1cc(C)nc(Nc2ccccc2)n1` [Pyrimethanil, pyrimethanil] yielded an IC50 (CCC-HEL-1 hepatocytes [1]) of 505 µg/mL, an IC50 (IAR hepatocytes) of 362 µg/mL and an IC50 (293T renal cells [2]) of 111 µg/mL. For the same molecule, the IC50 (NRK renal cells) was 192 µg/mL, the LDH release (293T renal cells [6]) was “significantly elevated LDH release” and the LDH release (293T renal cells [6]; listed as pyrimethanil) was “significantly increased”. The ALP level (CCC-HEL-1 hepatocytes [4]) was “isolated ALP elevation”, the ALT level (CCC-HEL-1 hepatocytes [4]) was “normal ALT levels” and the LDH level (CCC-HEL-1 hepatocytes [4]) was “LDH elevation”. The ALP level (CCC-HEL-1 hepatocytes [4]; listed as pyrimethanil) was “substantial increases”, the “Mammals - Acute oral LD50” value (Rat; [9]) was 4150 mg/kg and the “ADI - Acceptable Daily Intake” value ([5]; Rat SF=100) was 0.17 mg kg⁻¹ bw day⁻¹.
In the case of `Oc1nc(Cl)c(Cl)cc1Cl` [TCPy, 3,5,6-Trichloro-2-pyridinol], the “Toxicokinetic Parameter (Concentration), highest level” value ([7]; metabolite of chlorpyrifos, ref [3] (Huen et al. 2012, ref 76)) is given as 6.27 ng/mL.
`CCCCC(C#N)(Cn1cncn1)c1ccc(Cl)cc1` (stereo not shown) [Myclobutanil, myclobutanil] showed an IC50 (CCC-HEL-1 hepatocytes [1]) of 455 µg/mL, an IC50 (IAR hepatocytes) of 567 µg/mL and an IC50 (293T renal cells [2]) of 458 µg/mL. For the same molecule, the IC50 (NRK renal cells) was 588 µg/mL, the LDH release (293T renal cells [6]) was “significantly elevated LDH release” and the MRP2 protein level (MRP2 in 293T renal cells) was “most pronounced effect”. The “cytotoxicity (in words)” value [3, 8] was “strong cytotoxic effects”, the LDH level (CCC-HEL-1 hepatocytes [4]) was “LDH elevation” and the “Toxicokinetic Parameter (Concentration), mean” value ([7]; parent compound, ref [1] (Ding et al. 2023, ref 74)) was 38.3 ng/g creatinine. The “Mammals - Acute oral LD50” value (Rat; rat, in vivo, po) was 1600 mg/kg, the “Birds - Acute LD50” value (Colinus virginianus) was 510 mg/kg and the “ADI - Acceptable Daily Intake” value ([5]; Rat SF=100) was 0.025 mg kg⁻¹ bw day⁻¹.
With `CCOP(=S)(OCC)Oc1nc(Cl)c(Cl)cc1Cl` [Chlorpyrifos, chlorpyrifos] the IC50 (CCC-HEL-1 hepatocytes [1]) was 633 µg/mL, the IC50 (IAR hepatocytes) was 898 µg/mL and the IC50 (293T renal cells [2]) was 444 µg/mL. The IC50 (NRK renal cells) was 990 µg/mL, the KIM-1 expression (293T renal cells [6]) was “significantly decreased; also recorded: statistically significant downregulation” and the MRP2 protein level (MRP2 in 293T renal cells) was “most pronounced effect; also recorded: most pronounced downregulation”. For the same molecule, the “cytotoxicity (in words)” value [3] was “lowest toxicity; also recorded: minimal direct cytotoxicity”, the AST level (CCC-HEL-1 hepatocytes [4]) was “marked suppression” and the LDH level (CCC-HEL-1 hepatocytes [4]) was “most dramatic LDH elevation”. The “Mammals - Acute oral LD50” value (Rat; [9]) was 66 mg/kg and the “ADI - Acceptable Daily Intake” value ([5]; Rat SF=100) was 0.001 mg kg⁻¹ bw day⁻¹.
For `N#Cc1c(Cl)c(Cl)c(Cl)c(C#N)c1Cl` [Chlorothalonil, chlorothalonil], the IC50 (CCC-HEL-1 hepatocytes [1]) was 48.1 µg/mL, the IC50 (IAR hepatocytes) was 21.3 µg/mL and the “293T IC50” value (293T renal cells [2]) was 32.6 µg/mL. The IC50 (293T renal cells [2]) was 32.5 µg/mL, the IC50 (NRK renal cells) was 55.6 µg/mL and the “cytotoxicity (in words)” value [3, 8] was “relatively lower cytotoxicity at specific concentrations”. The “cytotoxicity (in words)” value ([3]; cell lines as stated in the sentence, listed as chlorothalonil) was “strongest cytotoxicity; also recorded: most cytotoxic agent”, the AST level (CCC-HEL-1 hepatocytes [4]) was “marked suppression” and the “Mammals - Acute oral LD50” value (Rat; [9]) was greater than 5000 mg/kg. For the same molecule, the “ADI - Acceptable Daily Intake” value ([5]; Rat SF=100) was 0.015 mg kg⁻¹ bw day⁻¹.
